Laboratory results reported in patent US6706757B2, “Chroman derivatives as 5-hydroxytryptamine-6 ligands” (Wyeth, priority 2001, dated 2004).
pKi: −log10 of the molar value. Structures can show the parent of a compound that is named as a salt.

Experiments:
[1] = target: T1, human cloned 5-HT6 receptors (Homo sapiens, UniProt P50406); assay: 5-HT6 binding affinity, [3H]-LSD displacement on membranes of Hela cells expressing human cloned 5-HT6 receptors; conditions: [3H]-LSD 3.0 nM, Hela cell membranes, 120 min at room temperature
T1 construct: expressed in transfected cells; host or cells: HeLa cells (membrane preparation)
T1 sequence (P50406 whole entry): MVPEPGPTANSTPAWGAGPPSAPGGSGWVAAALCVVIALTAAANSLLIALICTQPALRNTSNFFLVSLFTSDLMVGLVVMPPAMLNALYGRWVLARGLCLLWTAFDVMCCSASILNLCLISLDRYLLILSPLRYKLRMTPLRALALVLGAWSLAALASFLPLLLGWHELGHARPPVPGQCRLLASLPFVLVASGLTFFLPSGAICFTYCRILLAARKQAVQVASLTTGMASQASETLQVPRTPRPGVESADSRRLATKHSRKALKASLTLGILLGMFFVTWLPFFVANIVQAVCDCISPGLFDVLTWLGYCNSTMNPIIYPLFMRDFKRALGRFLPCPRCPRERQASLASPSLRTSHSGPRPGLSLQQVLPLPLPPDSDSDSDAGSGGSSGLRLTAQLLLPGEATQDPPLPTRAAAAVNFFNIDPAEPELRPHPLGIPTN
Experimental: The affinity of test compounds for the serotonin 5-HT6 receptor is evaluated in the following manner. Cultured Hela cells expressing human cloned 5-HT6 receptors are harvested and centrifuged at low speed (1,000×g) for 10.0 min to remove the culture media. The harvested cells are suspended in half volume of fresh physiological phosphate buffered saline solution and recentrifuged at the same speed. This operation is repeated. The collected cells are then homogenized in ten volumes of 50 mM Tris.HCl (pH 7.4) and 0.5 mM EDTA. The homogenate is centrifuged at 40,000×g for 30.0 min and the precipitate is collected. The obtained pellet is resuspended in 10 volumes of Tris.HCl buffer and recentrifuged at the same speed. The final pellet is suspended in a small volume of Tris.HCl buffer and the tissue protein content is determined in aliquots of 10-25 μl volumes. Bovine Serum Albumin is used as the standard in the protein determination according to the method described in Lowry et al., J. Biol. Chem., 193:265 (1951). The volume of the suspended cell membranes is adjusted to give a tissue protein concentration of 1.0 mg/ml of suspension. The prepared membrane suspension (10 times concentrated) is aliquoted in 1.0 ml volumes and stored at −70° C. until used in subsequent binding experiments.
Binding experiments are performed in a 96 well microtiter plate format, in a total volume of 200 μl. […] The test compounds are added in 20.0 μl volume.
The reaction is allowed to proceed in the dark for 120 min at room temperature, at which time, the bound ligand-receptor complex is filtered off on a 96 well unifilter with a Packard Filtermate® 196 Harvester. The bound complex caught on the filter disk is allowed to air dry and the radioactivity is measured in a Packard TopCount® equipped with six photomultiplier detectors, after the addition of 40.0 μl Microscint®-20 scintillant to each shallow well. The unifilter plate is heat-sealed and counted in a PackardTopCount® with a tritium efficiency of 31.0%.
Binding in the presence of varying concentrations of test compound is expressed as a percentage of specific binding in the absence of test compound. The results are plotted as log % bound versus log concentration of test compound. […] A linear regression line of data points is plotted, from which the IC50 value is determined and the Ki value is determined based upon the following equation: […]
where L is the concentration of the radioactive ligand used and KD is the dissociation constant of the ligand for the receptor, both expressed in nM.

Row | SMILES | melting point [°C] | pKi [1]
1 | C[C@@H](NCC1CCc2ccc(N(C)S(=O)(=O)c3ccc(Cl)cc3)cc2O1)c1ccccc1 (stereo partly drawn) (as salt: HCl) [Example 53, 4-chloro-N-methyl-N-[2-({[(1R)-1-phenylethyl]amino}methyl)-3,4-dihydro-2H-chromen-7-yl]benzenesulfonamide] | 198 to 201 | –
2 | C[C@@H](NCC1CCc2ccc(N(C)S(=O)(=O)c3ccccc3Br)cc2O1)c1ccccc1 (stereo partly drawn) (as salt: HCl) [Example 51, 2-bromo-N-methyl-N-[2-({[(1R)-1-phenylethyl]amino}methyl)-3,4-dihydro-2H-chromen-7-yl]benzenesulfonamide] | 199 to 201 | –
3 | COc1ccc(S(=O)(=O)N(C)c2ccc3c(c2)OC(CN[C@H](C)c2ccccc2)CC3)cc1OC (stereo partly drawn) (as salt: HCl) [Example 54, 3,4-dimethoxy-N-methyl-N-[2-({[(1R)-1-phenylethyl]amino}methyl)-3,4-dihydro-2H-chromen-7-yl]benzenesulfonamide] | 229 to 230 | –
4 | Cc1c(S(=O)(=O)Nc2ccc3c(c2)OC(CN[C@H](C)c2ccccc2)CC3)sc2ccc(Cl)cc12 (stereo partly drawn) [Example 36, 5-chloro-3-methyl-N-[2-({[(1R)-1-phenylethyl]amino}methyl)-3,4-dihydro-2H-chromen-7-yl]-1-benzothiophene-2-sulfonamide] | – | 7.35
5 | O=S(=O)(Nc1ccc2c(c1)OC(CNC(Cc1ccccc1)c1ccccc1)CC2)c1ccccc1 (centres unmarked) [Example 17, N-(2-{[(1,2-diphenylethyl)amino]methyl}-3,4-dihydro-2H-chromen-7-yl)benzenesulfonamide] | – | 7.08
6 | C[C@@H](NCC1CCc2ccc(N(C)S(=O)(=O)c3ccc(Cl)cc3)cc2O1)c1ccccc1 (stereo partly drawn) [Example 53, 4-chloro-N-methyl-N-[2-({[(1R)-1-phenylethyl]amino}methyl)-3,4-dihydro-2H-chromen-7-yl]benzenesulfonamide] | – | 8.30
7 | O=S(=O)(Nc1ccc2c(c1)OC(CNCc1ccncc1)CC2)c1ccccc1 (centres unmarked) [Example 15, N-(2-{[(pyridin-4-ylmethyl)amino]methyl}-3,4-dihydro-2H-chromen-7-yl)benzenesulfonamide] | – | 7.77
8 | CC(C)CCCC(C)NCC1CCc2ccc(NS(=O)(=O)c3ccccc3)cc2O1 (centres unmarked) [Example 21, N-(2-{[(1,5-dimethylhexyl)amino]methyl}-3,4-dihydro-2H-chromen-7-yl)benzenesulfonamide] | – | 8.10
9 | CC(CCc1ccccc1)NCC1CCc2ccc(NS(=O)(=O)c3ccccc3)cc2O1 (centres unmarked) [Example 20, N-(2-{[(1-methyl-3-phenylpropyl)amino]methyl}-3,4-dihydro-2H-chromen-7-yl)benzenesulfonamide] | – | 8.22
10 | C[C@@H](NCC1CCc2ccc(NS(=O)(=O)c3ccc(OC(F)(F)F)cc3)cc2O1)c1ccccc1 (stereo partly drawn) [Example 40, N-[2-({[(1R)-1-phenylethyl]amino}methyl)-3,4-dihydro-2H-chromen-7-yl]-4-(trifluoromethoxy)benzenesulfonamide] | – | 7.96
11 | C[C@@H](NCC1CCc2ccc(NS(=O)(=O)c3ccccc3)cc2O1)C1CCCCC1 (stereo partly drawn) [Example 27, N-[2-({[(1R)-1-cyclohexylethyl]amino}methyl)-3,4-dihydro-2H-chromen-7-yl]benzenesulfonamide] | – | 8.15
12 | C[C@@H](NCC1CCc2ccc(NS(=O)(=O)c3cccc4nonc34)cc2O1)c1ccccc1 (stereo partly drawn) [Example 32, N-[2-({[(1R)-1-Phenylethyl]amino}methyl)-3,4-dihydro-2H-chromen-7-yl]-2,1,3-benzoxadiazole-4-sulfonamide] | – | 8.30
13 | O=S(=O)(Nc1ccc2c(c1)OC(CN1CCCCC1CCO)CC2)c1ccccc1 (centres unmarked) [Example 23, N-(2-{[2-(2-hydroxyethyl)piperidin-1-yl]methyl}-3,4-dihydro-2H-chromen-7-yl)benzenesulfonamide] | – | 7.46
14 | COc1ccc(S(=O)(=O)N(C)c2ccc3c(c2)OC(CN[C@H](C)c2ccccc2)CC3)cc1OC (stereo partly drawn) [Example 54, 3,4-dimethoxy-N-methyl-N-[2-({[(1R)-1-phenylethyl]amino}methyl)-3,4-dihydro-2H-chromen-7-yl]benzenesulfonamide] | – | 7.96
15 | O=S(=O)(Nc1ccc2c(c1)OC(CNC1CCc3ccccc31)CC2)c1ccccc1 (centres unmarked) [Example 13, N-{2-[(2,3-dihydro-1H-inden-1-ylamino)methyl]-3,4-dihydro-2H-chromen-7-yl}benzenesulfonamide] | – | 8.15
16 | O=S(=O)(Nc1ccc2c(c1)OC(CN[C@@H](CO)c1ccccc1)CC2)c1ccccc1 (stereo partly drawn) [Example 16, N-[2-({[(1R)-2-hydroxy-1-phenylethyl]amino}methyl)-3,4-dihydro-2H-chromen-7-yl]benzenesulfonamide] | – | 8.30
17 | Cc1ccc(S(=O)(=O)Nc2ccc3c(c2)OC(CN[C@H](C)c2ccccc2)CC3)cc1 (stereo partly drawn) [Example 37, 4-methyl-N-[2-({[(1R)-1-phenylethyl]amino}methyl)-3,4-dihydro-2H-chromen-7-yl]benzenesulfonamide] | – | 7.80

Next, values leading:

Row | melting point [°C] | pKi [1] | SMILES
18 | – | 9.00 | C[C@@H](NCC1CCc2ccc(NS(=O)(=O)c3ccc(N)cc3)cc2O1)c1ccccc1 (stereo partly drawn) [Example 44, 4-amino-N-[2-({[(1R)-1-phenylethyl]amino}methyl)-3,4-dihydro-2H-chromen-7-yl]benzenesulfonamide]
19 | – | 8.30 | O=S(=O)(Nc1ccc2c(c1)OC(CNCCCO)CC2)c1ccc2ccccc2c1 (centres unmarked) [Example 28, N-(2-{[(3-Hydroxypropyl)amino]methyl}-3,4-dihydro-2H-chromen-7-yl)naphthalene-2-sulfonamide]
20 | – | 8.52 | CC(C)C[C@H](CO)NCC1CCc2ccc(NS(=O)(=O)c3ccccc3)cc2O1 (stereo partly drawn) [Example 22, N-[2-({[(1R)-1-(hydroxymethyl)-3-methylbutyl]amino}methyl)-3,4-dihydro-2H-chromen-7yl]benzenesulfonamide]
21 | – | 8.70 | C[C@@H](NC[C@@H]1CCc2ccc(NS(=O)(=O)c3cccc4ccccc34)cc2O1)c1ccccc1 [Example 46B, N-[(2S)-2({[(1R)-1-phenylethyl]amino}methyl)-3,4-dihydro-2H-chromen-7-yl]naphthalene-1-sulfonamide Hydrochloride]
22 | – | 8.70 | O=S(=O)(Nc1ccc2c(c1)OC(CNCCCOc1ccccc1)CC2)c1ccccc1 (centres unmarked) [Example 9, N-(2-{[(3-phenoxypropyl)amino]methyl}-3,4-dihydro-2H-chromen-7-yl)benzenesulfonamide]
23 | – | 8.40 | C[C@@H](NCC1CCc2ccc(N(C)S(=O)(=O)c3cccc4ccccc34)cc2O1)c1ccccc1 (stereo partly drawn) [Example 55, N-methyl-N-[2-({[(1R)-1-phenylethyl]amino}methyl)-3,4-dihydro-2H-chromen-7-yl]naphthalene-1-sulfonamide]
24 | – | 8.40 | C[C@@H](NCC1CCc2ccc(NS(=O)(=O)c3cccc4ccccc34)cc2O1)c1ccccc1 (stereo partly drawn) [Example 41, N-[2-({[(1R)-1-phenylethyl]amino}methyl)-3,4-dihydro-2H-chromen-7-yl]naphthalene-1-sulfonamide]
25 | – | 8.70 | C[C@@H](NCC1CCc2ccc(NS(=O)(=O)c3ccc(Cl)s3)cc2O1)c1ccccc1 (stereo partly drawn) [Example 42, 5-chloro-N-[2-({[(1R)-1-phenylethyl]amino}methyl)-3,4-dihydro-2H-chromen-7-yl]thiophene-2-sulfonamide]
26 | – | 8.40 | COc1cccc(CNCC2CCc3ccc(NS(=O)(=O)c4ccccc4)cc3O2)c1 (centres unmarked) [Example 6, N-(2-{[(3-methoxybenzyl)amino]methyl}-3,4-dihydro-2H-chromen-7-yl)benzenesulfonamide]
